Experimental data reported in patent US20190183939A1, “CELL THERAPY USING MIDBRAIN-TYPE NEURAL STEM CELLS TREATED WITH VITAMIN C” (INDUSTRY-UNIVERSITY COOPERATION FOUNDATION HANYANG …, priority 2017, published 2019).

Key:
Nurr1 and TH promoters = experiment: DIP-qPCR and ChIP-qPCR on Nurr1 and TH promoters; assay type: cell-based, rat; conditions: Quercetin 10 μM, 3 hours prior to VC treatment
Source text: (§1) Foxa2 and Nurr1 binding sites were identified using the Jaspar database (http://jaspar.genereg.net/) using an 80% score threshold. Predicted Foxa2 and Nurr1 binding sites were coupled with phylogenetic footprinting to eliminate spurious predictions with specified position weight matrix (PWM) settings, as described in the following reference. [Sandelin, A., and Wasserman, W. W. (2004). Constrained binding site diversity within families of transcription factors enhances pattern discovery bioinformatics. Journal of molecular biology 338, 207-215] (Table 2). ChIP and DIP assays were carried out as described in the following reference. [Prolonged membrane depolarization enhances midbrain dopamine neuron differentiation via epigenetic histone modifications. Stem Cells 29, 1861-1873]. Briefly, chromatin or genomic DNA was sheared to an average of 200-500 bp in length using a sonication Bioruptor (BMS, Seoul, Korea) and immunoprecipitated using the antibodies listed in Table 1. Immunoprecipitated DNA fragments were collected using magnetic beads (Invitrogen), purified, and subjected to real-time PCR using the primers listed in Table 3. The comparative cycle threshold method was used to quantify the results. Data were normalized to the input DNA.

[1] = test system: Foxa2 and Lmx1a promoters; experiment: DIP-qPCR and ChIP-qPCR on Foxa2 and Lmx1a promoters; assay type: cell-based, rat; conditions: Quercetin 10 μM, 3 hours prior to VC treatment
Source text: as §1

## O=c1c(O)c(-c2ccc(O)c(O)c2)oc2cc(O)cc(O)c12 [quercetin]
Nurr1 and TH promoters
  effect on VC-induced epigenetic changes on Nurr1 and Th promoter: abolished
[1]
  effect on VC-mediated changes to 5mC/5hmC and H3K27m3/H3K9m3 on Foxa2 and Lmx1a genes: abolished
